The values that follow are results of earlier work, collected in patent publication US12552784B2, “1H-pyrrolo[2,3-b]pyridine derivatives as BCL-2 inhibitors for the treatment of neoplastic and autoimmune diseases” (priority 2019, dated 2026).

One data set has as its system DoHH2. Conditions: single agent or in combination with Bendamustine and other agents.
In another data set the test system is RS4;11 xenografts. Conditions: single dose of 100 mg/kg.
The test system of the next data set is Granta-519. To be noted: single agent or in combination with Bendamustine and other agents.
For data set [1], the system named is CLL who have 17p deletion. To be noted: Human Phase I and II.
In another data set the test system is CLL. To be noted: average; read-out: EC50 apoptosis in CLL.
Data set [2] concerns acute lymphoblastic leukemia. Conditions: oral administration alone.
The next data set has as its target T1, Bcl-w (Homo sapiens, UniProt Q92843).
T1 sequence (Q92843 1-193): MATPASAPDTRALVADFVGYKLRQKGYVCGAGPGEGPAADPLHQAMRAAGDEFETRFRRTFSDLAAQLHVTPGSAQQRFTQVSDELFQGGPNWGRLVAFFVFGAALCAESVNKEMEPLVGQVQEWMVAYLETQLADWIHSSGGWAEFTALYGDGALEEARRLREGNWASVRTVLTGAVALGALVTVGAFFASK

The subject of another data set is small-cell lung cancer. Conditions: oral administration alone.
For data set [3] the following is noted: in vivo.
The subject of another data set is SCLC H146 cell line. Conditions: read-out: IC50 against SCLC H146 cell line.
A further data set relates to H345 xenograft model. To be noted: 100 mg/kg/day.
Another data set has as its system established tumors. To be noted: animal models.

On to `CC1(C)CCC(CN2CCN(c3ccc(C(=O)NS(=O)(=O)c4ccc(NCC5CCOCC5)c([N+](=O)[O-])c4)c(Oc4cnc5[nH]ccc5c4)c3)CC2)=C(c2ccc(Cl)cc2)C1` [ABT-199], for which the xenograft growth entry with DoHH2 and with Granta-519 was “inhibits xenograft growth” throughout. Besides, the “maximal tumor growth inhibition” value in the data set on RS4;11 xenografts is 95%. Further, the tumor growth delay in the data set on RS4;11 xenografts is given as 152%. Further, in data set [1], the clinical efficacy result is reported as “highly efficacious”. Besides, the EC50 (commonly the concentration needed to bring the measured effect to its halfway point) is 3 nM with CLL and 8 nM with RS4;11 cells. In the data set with RS4;11 cells (with cytochrome c release, caspase activation, accumulation of sub-G0/G1 DNA), the “apoptosis in RS4;11 cells” value was “rapid apoptosis”.
In the case of `CC1(C)CCC(c2ccc(Cl)cc2)=C(CN2CCN(c3ccc(C(=O)NS(=O)(=O)c4ccc(N[C@H](CCN5CCOCC5)CSc5ccccc5)c(S(=O)(=O)C(F)(F)F)c4)cc3)CC2)C1` [ABT-263], the tumor regression result (in [2]; in the data set with small-cell lung cancer) was “complete tumor regressions” each time. In addition, the Ki (commonly a measure of affinity in units of concentration, obtained from inhibition or displacement) at Bcl-w is not above 1 nM. For the same compound, the “number of circulating platelets” value in the data set with circulating platelets (clinical trial) was “rapid, concentration-dependent decrease”. Besides, in the data set on circulating platelets (single-agent treatment in patients), the dose-limiting toxicity entry was “mechanism-based thrombocytopenia”. Besides, the oral bioavailability entry in data set [3] is reported as “orally bioavailable”. In addition, the IC50 (usually the concentration that gives 50% inhibition) in the data set with SCLC H146 cell line was 110 nM. For the same compound, the TGI (in general, how far tumour growth fell short of that in controls) in the data set with H345 xenograft model was 80%. Also, in the data set with H345 xenograft model, the “treated tumors indicating at least a 50% reduction in tumor volume” value is on record as 20%.
On to `CN(C)CC[C@H](CSc1ccccc1)Nc1ccc(S(=O)(=O)NC(=O)c2ccc(N3CCN(Cc4ccccc4-c4ccc(Cl)cc4)CC3)cc2)cc1[N+](=O)[O-]` [ABT-737], for which the aqueous solubility result is on record as “low aqueous solubility”. Moreover, the oral bioavailability entry in data set [3] is listed as “not orally bioavailable”. Further, in the data set on established tumors, the cures entry is recorded as “produces cures in a high percentage of the mice”, the survival result was “improves survival” and the tumor regression result was “causes regression of established tumors”.
